# Experimental data reported in US10597388B2, “Pyridazinone herbicides” (FMC CORPORATION, priority 2014, dated 2020).
# What was measured:
# Experiment in all cases: Test C greenhouse herbicide test, pre- and postemergence
# Format in all cases: in vivo
# soybean (Glycine max) = system: soybean (Glycine max)
# Procedure, shortened: (§1)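 Percent-control ratings (0 none, 100 complete) came from visual comparison with controls held alongside in the greenhouse for 13–15 d. Treatments covered soil application at sowing and foliar application to young plants 2–18 cm tall.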
# [1] = system: johnsongrass (Sorghum halepense)
# Procedure, shortened: as §1
# [2] = system: oilseed rape (Brassica napus)
# Procedure, shortened: as §1
# [3] = system: blackgrass (Alopecurus myosuroides)
# Procedure, shortened: as §1
# [4] = system: lambsquarters (Chenopodium album)
# Procedure, shortened: as §1
# [5] = system: foxtail, giant (giant foxtail, Setaria faberii)
# Procedure, shortened: as §1
# [6] = system: morningglory (Ipomoea coccinea)
# Procedure, shortened: as §1
# [7] = system: wheat (winter wheat, Triticum aestivum)
# Procedure, shortened: as §1
# [8] = system: velvetleaf (Abutilon theophrasti)
# Procedure, shortened: as §1
# [9] = system: galium (catchweed bedstraw, Galium aparine)
# Procedure, shortened: as §1
# [10] = system: pigweed (Amaranthus retroflexus)
# Procedure, shortened: as §1
# [11] = system: crabgrass, large (large crabgrass, Digitaria sanguinalis)
# Procedure, shortened: as §1
# [12] = system: ragweed (common ragweed, Ambrosia elatior)
# Procedure, shortened: as §1
# [13] = system: waterhemp (common waterhemp, Amaranthus rudis)
# Procedure, shortened: as §1
# [14] = system: nutsedge, yellow (yellow nutsedge, Cyperus esculentus)
# Procedure, shortened: as §1
# [15] = system: barnyardgrass (Echinochloa crus-galli)
# Procedure, shortened: as §1
# [16] = Postemergence, 31 g ai/ha, scale 0 to 100 (0 no effect, 100 complete control)
# [17] = Postemergence, 62 g ai/ha, 0 to 100 scale (0 no effect, 100 complete control)
# [18] = Postemergence, 250 g ai/ha, scale 0 to 100, 0 no effect, 100 complete control, 13 to 15 d
# [19] = Preemergence, 31 g ai/ha, scale 0 to 100, 0 is no effect, 100 is complete control
# [20] = Preemergence, 62 g ai/ha, scale 0 to 100, 0 is no effect, 100 is complete control
# [21] = Preemergence, 125 g ai/ha, scale 0 to 100, 0 is no effect, 100 is complete control
# [22] = Preemergence, 250 g ai/ha, scale 0 to 100 (0 no effect, 100 complete control)
# [23] = postemergence, 125 g ai/ha, scale 0 to 100, 0 no effect, 100 complete control
structure (smiles),measurement,setting,value
COc1nn(C)c(=O)c(-c2c(C)ccc3ccccc23)c1OC(C)=O [Compound 138],"Plant response rating, Soybean",soybean (Glycine max); [16],10
same,Soybean plant response rating,soybean (Glycine max); [17],10
same,"Plant response rating, Soybean",soybean (Glycine max); [18],25
same,"Plant response rating, Soybean",soybean (Glycine max); [19],0
same,"Plant response rating, Soybean",soybean (Glycine max); [20],0
same,"Plant response rating, Soybean",soybean (Glycine max); [21],20
same,Soybean plant response rating,soybean (Glycine max); [22],15
same,Soybean plant response rating,soybean (Glycine max); [23],10
same,"Plant response rating, Johnsongrass",[1]; [16],10
same,Johnsongrass plant response rating,[1]; [17],10
same,"Plant response rating, Johnsongrass",[1]; [18],20
same,"Plant response rating, Johnsongrass",[1]; [19],10
same,"Plant response rating, Johnsongrass",[1]; [20],15
same,"Plant response rating, Johnsongrass",[1]; [21],30
same,Johnsongrass plant response rating,[1]; [22],20
same,Johnsongrass plant response rating,[1]; [23],20
same,"Plant response rating, Oilseed Rape",[2]; [16],95
same,Oilseed Rape plant response rating,[2]; [17],98
same,"Plant response rating, Oilseed Rape",[2]; [18],98
same,"Plant response rating, Oilseed Rape",[2]; [19],85
same,"Plant response rating, Oilseed Rape",[2]; [20],90
same,"Plant response rating, Oilseed Rape",[2]; [21],90
same,Oilseed Rape plant response rating,[2]; [22],100
same,Oilseed Rape plant response rating,[2]; [23],98
same,"Plant response rating, Blackgrass",[3]; [16],5
same,Blackgrass plant response rating,[3]; [17],5
same,"Plant response rating, Blackgrass",[3]; [18],80
same,"Plant response rating, Blackgrass",[3]; [19],45
same,"Plant response rating, Blackgrass",[3]; [20],55
same,"Plant response rating, Blackgrass",[3]; [21],40
same,Blackgrass plant response rating,[3]; [22],90
same,Blackgrass plant response rating,[3]; [23],50
same,"Plant response rating, Lambsquarters",[4]; [16],90
same,Lambsquarters plant response rating,[4]; [17],90
same,"Plant response rating, Lambsquarters",[4]; [18],98
same,"Plant response rating, Lambsquarters",[4]; [19],95
same,"Plant response rating, Lambsquarters",[4]; [20],95
same,"Plant response rating, Lambsquarters",[4]; [21],100
same,Lambsquarters plant response rating,[4]; [22],100
same,Lambsquarters plant response rating,[4]; [23],95
same,"Plant response rating, Foxtail, Giant",[5]; [16],35
same,"Foxtail, Giant plant response rating",[5]; [17],60
same,"Plant response rating, Foxtail, Giant",[5]; [18],80
same,"Plant response rating, Foxtail, Giant",[5]; [19],80
same,"Plant response rating, Foxtail, Giant",[5]; [20],85
same,"Plant response rating, Foxtail, Giant",[5]; [21],100
same,"Foxtail, Giant plant response rating",[5]; [22],100
same,"Foxtail, Giant plant response rating",[5]; [23],65
same,"Plant response rating, Morningglory",[6]; [16],98
same,Morningglory plant response rating,[6]; [17],100
same,"Plant response rating, Morningglory",[6]; [18],100
same,"Plant response rating, Morningglory",[6]; [19],80
same,"Plant response rating, Morningglory",[6]; [20],90
same,"Plant response rating, Morningglory",[6]; [21],98
same,Morningglory plant response rating,[6]; [22],98
same,Morningglory plant response rating,[6]; [23],98
same,"Plant response rating, Wheat",[7]; [16],60
same,Wheat plant response rating,[7]; [17],40
same,"Plant response rating, Wheat",[7]; [18],90
same,"Plant response rating, Wheat",[7]; [19],0
same,"Plant response rating, Wheat",[7]; [20],35
same,"Plant response rating, Wheat",[7]; [21],5
same,Wheat plant response rating,[7]; [22],5
same,Wheat plant response rating,[7]; [23],80
same,"Plant response rating, Velvetleaf",[8]; [16],85
same,Velvetleaf plant response rating,[8]; [17],90
same,"Plant response rating, Velvetleaf",[8]; [18],98
same,"Plant response rating, Velvetleaf",[8]; [19],85
same,"Plant response rating, Velvetleaf",[8]; [20],90
same,"Plant response rating, Velvetleaf",[8]; [21],98
same,Velvetleaf plant response rating,[8]; [22],100
same,Velvetleaf plant response rating,[8]; [23],95
same,"Plant response rating, Galium",[9]; [16],90
same,Galium plant response rating,[9]; [17],90
same,"Plant response rating, Galium",[9]; [18],95
same,"Plant response rating, Galium",[9]; [19],95
same,"Plant response rating, Galium",[9]; [20],98
same,"Plant response rating, Galium",[9]; [21],98
same,Galium plant response rating,[9]; [22],98
same,Galium plant response rating,[9]; [23],95
same,"Plant response rating, Pigweed",[10]; [16],80
same,Pigweed plant response rating,[10]; [17],85
same,"Plant response rating, Pigweed",[10]; [18],98
same,"Plant response rating, Pigweed",[10]; [19],100
same,"Plant response rating, Pigweed",[10]; [20],98
same,"Plant response rating, Pigweed",[10]; [21],100
same,Pigweed plant response rating,[10]; [22],100
same,Pigweed plant response rating,[10]; [23],90
same,"Plant response rating, Crabgrass, Large",[11]; [16],15
same,"Crabgrass, Large plant response rating",[11]; [17],20
same,"Plant response rating, Crabgrass, Large",[11]; [18],25
same,"Plant response rating, Crabgrass, Large",[11]; [19],0
same,"Plant response rating, Crabgrass, Large",[11]; [20],40
same,"Plant response rating, Crabgrass, Large",[11]; [21],70
same,"Crabgrass, Large plant response rating",[11]; [22],80
same,"Crabgrass, Large plant response rating",[11]; [23],20
same,"Plant response rating, Ragweed",[12]; [16],0
same,Ragweed plant response rating,[12]; [17],0
same,"Plant response rating, Ragweed",[12]; [18],5
same,"Plant response rating, Ragweed",[12]; [19],95
same,"Plant response rating, Ragweed",[12]; [20],100
same,"Plant response rating, Ragweed",[12]; [21],98
same,Ragweed plant response rating,[12]; [22],95
same,Ragweed plant response rating,[12]; [23],5
same,"Plant response rating, Waterhemp",[13]; [16],90
same,Waterhemp plant response rating,[13]; [17],95
same,"Plant response rating, Waterhemp",[13]; [18],100
same,"Plant response rating, Waterhemp",[13]; [19],95
same,"Plant response rating, Waterhemp",[13]; [20],100
same,"Plant response rating, Waterhemp",[13]; [21],98
same,Waterhemp plant response rating,[13]; [22],100
same,Waterhemp plant response rating,[13]; [23],98
same,"Plant response rating, Nutsedge, Yellow",[14]; [16],45
same,"Nutsedge, Yellow plant response rating",[14]; [17],65
same,"Plant response rating, Nutsedge, Yellow",[14]; [18],80
same,"Plant response rating, Nutsedge, Yellow",[14]; [19],5
same,"Plant response rating, Nutsedge, Yellow",[14]; [20],60
same,"Plant response rating, Nutsedge, Yellow",[14]; [21],95
same,"Nutsedge, Yellow plant response rating",[14]; [22],90
same,"Nutsedge, Yellow plant response rating",[14]; [23],75
same,"Plant response rating, Barnyardgrass",[15]; [16],25
same,Barnyardgrass plant response rating,[15]; [17],25
same,"Plant response rating, Barnyardgrass","[15]; Postemergence, 125 g ai/ha, scale 0 to 100, 0 is no effect, 100 is complete control",30
same,"Plant response rating, Barnyardgrass",[15]; [18],40
same,"Plant response rating, Barnyardgrass",[15]; [19],30
same,"Plant response rating, Barnyardgrass",[15]; [20],55
same,"Plant response rating, Barnyardgrass",[15]; [21],90
same,Barnyardgrass plant response rating,[15]; [22],98
